The record followed here is patent publication US5789405A, “Oxaspiro(2,5)octane derivative” (Fujisawa Pharmaceutical Co., Ltd., priority 1988, dated 1998).

Molecules are shown by their SMILES. Values after ≈ are worked out from the molar mass of the structure shown.

In the test the test system is Endothelial cells from human umbilical vein (HUVEC). In words: Test effect on endothelial cell growth (HUVEC proliferation, MTT method). It is filed as cell-based. The conditions noted are these: 120 h, 5 days incubation at 37° C., graphically determined, read-out: IC50 (50% inhibition doses of the test compound to endothelial cell growth). As for the experimental part: Test effect of the object compound (I) on endothelial cell growth
Endothelial cells from human umbilical vein (HUVEC) were used for this experiment.
HUVEC (2×10^3 cells per well) were plated on 96 wells microtiter plates previously coated with human fibronectin and incubated with MCDB 151 [GIBCO] medium supplemented with 15% FBS (fetal bovine serum), […] ECGS (Endothelial cell growth supplement), 10 μg/ml heparin in the presence of the test compound at 37° C. under 5% CO2 in the air for 5 days. At the end of the experiments, the growth rate of HUVEC was measured according to the MTT method [Cancer treatment Reports 71, 1141~1149 (1987)].
IC50 values [50% inhibition doses of the test compound to endothelial cell growth) of the test compound were graphically determined and are shown in the following table.
For orientation: Tetrazolium assays rely on reduction of a dye to a coloured formazan, in cell work by metabolically active cells.

As usually defined, the IC50 is the concentration that inhibits the measured activity by half. Take `COC1C(OC(=O)N2CCOCC2)CCC2(CO2)C1C1(C)OC1CC=C(C)C` (centres unmarked): the IC50 amounted to 0.62 ng/mL (≈ 1.57 nM).

In the case of `CNC(=O)OC1CCC2(CO2)C(C2(C)OC2CC=C(C)C)C1OC` (centres unmarked), the IC50 amounted to 0.21 ng/mL (≈ 0.619 nM).
